Reference: ChEMBL document CHEMBL1201862, “PubChem BioAssay data set” (2004)
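Growth conditions: 96-well plates. Treatment: test compound, 48 hours, 5 concentrations. Analysis: linear interpolation between bracketing concentrations; unreached endpoints set to highest concentration. GI50: concentration for 50% inhibition of growth.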 Active and inactive are the calls of the source. Cut-off read from the data, not from the text of the source: active = GI50 up to about 1.1 µM and inactive = higher.

Legend:
Assay in all cases: growth of human tumour cells (NCI), 48 h
NCI-H226 = tested on: NCI-H226
COLO 205 = tested on: COLO 205
UACC-257 = tested on: UACC-257
OVCAR-4 = tested on: OVCAR-4
SNB-75 = tested on: SNB-75
T47D = tested on: T47D
DU-145 = tested on: DU-145
HCC 2998 = tested on: HCC 2998
RPMI-8226 = tested on: RPMI-8226
MDA-MB-231 = tested on: MDA-MB-231
NCI-H23 = tested on: NCI-H23
OVCAR-3 = tested on: OVCAR-3
U-251 = tested on: U-251
OVCAR-5 = tested on: OVCAR-5
K562 = tested on: K562
MCF7 = tested on: MCF7
SF-295 = tested on: SF-295
CCRF-CEM = tested on: CCRF-CEM
ACHN = tested on: ACHN
NCI/ADR-RES = tested on: NCI/ADR-RES
NCI-H522 = tested on: NCI-H522
SN12C = tested on: SN12C
KM12 = tested on: KM12
HCT-116 = tested on: HCT-116
MDA-MB-435 = tested on: MDA-MB-435
HOP-92 = tested on: HOP-92
CAKI-1 = tested on: CAKI-1
HL-60 = tested on: HL-60
SK-MEL-5 = tested on: SK-MEL-5
M14 = tested on: M14
OVCAR-8 = tested on: OVCAR-8
UO-31 = tested on: UO-31
IGROV-1 = tested on: IGROV-1
MDA-N = tested on: MDA-N
HCT-15 = tested on: HCT-15
PC-3 = tested on: PC-3
SR = tested on: SR
A498 = tested on: A498
RXF 393 = tested on: RXF 393
SF-268 = tested on: SF-268
SW-620 = tested on: SW-620
SF-539 = tested on: SF-539
TK-10 = tested on: TK-10
UACC-62 = tested on: UACC-62
A549 = tested on: A549
SK-MEL-28 = tested on: SK-MEL-28
SNB-19 = tested on: SNB-19
BT-549 = tested on: BT-549
HT-29 = tested on: HT-29
NCI-H460 = tested on: NCI-H460
MOLT-4 = tested on: MOLT-4
SK-MEL-2 = tested on: SK-MEL-2
LOX IMVI = tested on: LOX IMVI
EKVX = tested on: EKVX
Hs-578T = tested on: Hs-578T
786-0 = tested on: 786-0
Malme-3M = tested on: Malme-3M
HOP-62 = tested on: HOP-62

COC(=O)C(Cc1cn(C(C)=O)c2ccccc12)P(=O)(OC)OC (stereo unspecified)
GI50 (NCI-H226): > 100 µM (inactive)
GI50 (COLO 205): > 100 µM (inactive)
GI50 (UACC-257): > 100 µM (inactive)
GI50 (OVCAR-4): > 100 µM (inactive)
GI50 (SNB-75): 60.3 µM (inactive)
GI50 (T47D): > 100 µM (inactive)
GI50 (DU-145): > 100 µM (inactive)
GI50 (HCC 2998): > 100 µM (inactive)
GI50 (RPMI-8226): > 100 µM (inactive)
GI50 (MDA-MB-231): > 100 µM (inactive)
GI50 (NCI-H23): > 100 µM (inactive)
GI50 (OVCAR-3): > 100 µM (inactive)
GI50 (U-251): > 100 µM (inactive)
GI50 (OVCAR-5): 95.3 µM (inactive)
GI50 (K562): > 100 µM (inactive)
GI50 (MCF7): 20.7 µM (inactive)
GI50 (SF-295): > 100 µM (inactive)
GI50 (CCRF-CEM): > 100 µM (inactive)
GI50 (ACHN): > 100 µM (inactive)
GI50 (NCI/ADR-RES): > 100 µM (inactive)
GI50 (NCI-H522): > 100 µM (inactive)
GI50 (SN12C): > 100 µM (inactive)
GI50 (KM12): > 100 µM (inactive)
GI50 (HCT-116): > 100 µM (inactive)
GI50 (MDA-MB-435): > 100 µM (inactive)
GI50 (HOP-92): > 100 µM (inactive)
GI50 (CAKI-1): > 100 µM (inactive)
GI50 (HL-60): > 100 µM (inactive)
GI50 (SK-MEL-5): > 100 µM (inactive)
GI50 (M14): > 100 µM (inactive)
GI50 (OVCAR-8): > 100 µM (inactive)
GI50 (UO-31): 72.9 µM (inactive)
GI50 (IGROV-1): > 100 µM (inactive)
GI50 (MDA-N): > 100 µM (inactive)
GI50 (HCT-15): > 100 µM
GI50 (PC-3): > 100 µM (inactive)
GI50 (SR): > 100 µM (inactive)
GI50 (A498): > 100 µM (inactive)
GI50 (RXF 393): > 100 µM (inactive)
GI50 (SF-268): > 100 µM (inactive)
GI50 (SW-620): > 100 µM (inactive)
GI50 (SF-539): > 100 µM (inactive)
GI50 (TK-10): > 100 µM (inactive)
GI50 (UACC-62): > 100 µM (inactive)
GI50 (A549): > 100 µM (inactive)
GI50 (SK-MEL-28): > 100 µM (inactive)
GI50 (SNB-19): > 100 µM (inactive)
GI50 (BT-549): > 100 µM (inactive)
GI50 (HT-29): > 100 µM (inactive)
GI50 (NCI-H460): > 100 µM (inactive)

CN(C)CCNC(=O)c1cc(NC(=O)c2cc(NC(=O)CC/C=C3/[C@@H]4CC[C@H]3N=N4)cn2C)cn1C
GI50 (NCI-H226): > 100 µM (inactive)
GI50 (COLO 205): > 100 µM (inactive)
GI50 (UACC-257): > 100 µM (inactive)
GI50 (OVCAR-4): > 100 µM (inactive)
GI50 (SNB-75): > 100 µM (inactive)
GI50 (MOLT-4): > 100 µM (inactive)
GI50 (DU-145): > 100 µM (inactive)
GI50 (HCC 2998): > 100 µM (inactive)
GI50 (RPMI-8226): > 100 µM (inactive)
GI50 (SK-MEL-2): > 100 µM (inactive)
GI50 (MDA-MB-231): > 100 µM (inactive)
GI50 (NCI-H23): > 100 µM (inactive)
GI50 (OVCAR-3): > 100 µM (inactive)
GI50 (U-251): > 100 µM (inactive)
GI50 (OVCAR-5): > 100 µM (inactive)
GI50 (LOX IMVI): > 100 µM (inactive)
GI50 (K562): > 100 µM (inactive)
GI50 (MCF7): > 100 µM (inactive)
GI50 (SF-295): > 100 µM (inactive)
GI50 (CCRF-CEM): > 100 µM (inactive)
GI50 (ACHN): > 100 µM (inactive)
GI50 (EKVX): > 100 µM (inactive)
GI50 (Hs-578T): > 100 µM (inactive)
GI50 (NCI/ADR-RES): > 100 µM (inactive)
GI50 (NCI-H522): > 100 µM (inactive)
GI50 (SN12C): > 100 µM (inactive)
GI50 (KM12): > 100 µM (inactive)
GI50 (786-0): > 100 µM (inactive)
GI50 (HCT-116): > 100 µM (inactive)
GI50 (MDA-MB-435): > 100 µM (inactive)
GI50 (HOP-92): > 100 µM (inactive)
GI50 (CAKI-1): > 100 µM (inactive)
GI50 (HL-60): > 100 µM (inactive)
GI50 (SK-MEL-5): > 100 µM (inactive)
GI50 (M14): > 100 µM (inactive)
GI50 (OVCAR-8): > 100 µM (inactive)
GI50 (UO-31): > 100 µM (inactive)
GI50 (IGROV-1): > 100 µM (inactive)
GI50 (MDA-N): > 100 µM (inactive)
GI50 (HCT-15): > 100 µM
GI50 (PC-3): > 100 µM (inactive)
GI50 (SR): > 100 µM (inactive)
GI50 (Malme-3M): 70.3 µM (inactive)
GI50 (A498): > 100 µM (inactive)
GI50 (RXF 393): > 100 µM (inactive)
GI50 (SF-268): > 100 µM (inactive)
GI50 (SW-620): > 100 µM (inactive)
GI50 (SF-539): > 100 µM (inactive)
GI50 (TK-10): > 100 µM (inactive)
GI50 (A549): > 100 µM (inactive)
GI50 (SK-MEL-28): > 100 µM (inactive)
GI50 (HOP-62): > 100 µM (inactive)
GI50 (SNB-19): > 100 µM (inactive)
GI50 (BT-549): > 100 µM (inactive)
GI50 (HT-29): > 100 µM (inactive)
GI50 (NCI-H460): > 100 µM (inactive)
